Experimental data taken from patent US5039689A, “Antiparasitic 3(4-amino benzotriazo-1-yl-)1,2-cyclopentanediols” (Burroughs Wellcome Co., priority 1988, dated 1991).

Assays:
[1] = system: Trypanosoma brucei gambiense; assay: Activity against Trypanosoma brucei gambiense (procyclic culture, 5 days, density by Coulter Counter); format: cell-based, T. brucei subsp. gambiense procyclic (strain TH114); conditions: 120 h, T. brucei gambiense procyclic TH114, medium PDM-79, 27° C., read-out: I50
Procedure: A) Activity against Trypanosoma brucei gambiense 1. T. brucei subsp. gambiense procyclic (strain TH114 from the Institut fur Schiffs und Tropenkrankheiten, Hamburg) were grown in medium PDM-79 (Fish et al; BBA714[1982]422-428) in 25 cm^2 tissue (T-25) culture flasks at 27° C. in a 5% CO^2 /air atmosphere. Drugs were dissolved in 0.1N NaOH and their concentration determined from their spectral data. Drugs were added to the PDM-79 at a volume≤1% of the total volume and the drug containing medium filter-sterilised into T-25 flasks. Flasks were inoculated to a final density of ≈10^5 /ml and incubated for 5 days at which time their density was determined by a Coulter Counter (Model ZB1). Results were expressed as % inhibition relative to the controls.

Pneumocystis carinii = assay: Activity against Pneumocystis carinii (method of Pesanti); format: cell-based; conditions: read-out: I50
Procedure: (B) Activity against Pneumocystis carinii
The compounds were tested according to the method of Pesanti, (J. Infect. Dis., 141(6), 775-780, 1980).

[2] = Oral toxicology test in rats; format: in vivo; conditions: Charles River CD rats, 4 mg/kg for 30 days
Procedure: Charles River CD rats were given oral doses of the compound of Example 3 at 4 mg/kg for 30 days.

For `NC(=O)[C@@H]1C[C@H](n2cnc3c(N)ncnc32)[C@@H](O)[C@H]1O` (relative stereo) [Example 6, (±)-(1R*,2S*,3R*,4S*)-4-(6-Amino-9H-purin-9-yl)-2,3-dihydroxy-1-cyclopentanecarboxamide], the IC50 [1] was 40 to 200 nM.
`C[C@H]1C[C@@H](n2cnc3c(N)ncnc32)[C@H](O)[C@@H]1O` (relative stereo) [Example 5, (±)-(1R*,2S*,3R*,5S*)-3-(6-Amino-9H-purin-9-yl)-5-methyl-1,2-cyclopentanediol] gave an IC50 [1] of 2 nM.
In the case of `Nc1ncnc2c1ncn2[C@H]1CC[C@@H](O)[C@H]1O` (relative stereo) [Example 2, (±)-(1R*,2S*,3S*)-3-(6-Amino-9H-purin-9-yl)-1,2-cyclopentanediol], the IC50 [1] is reported as 1000 nM and the IC50 (Pneumocystis carinii) is reported as < 20000 nM.
Work on `Nc1ncnc2c1ncn2[C@@H]1CC[C@@H](O)[C@H]1O` (relative stereo) [Example 1C, (±)-(1R*,2S*,3R*)-3-(6-Amino-9H-purin-9-yl)-1,2-cyclopentanediol] yielded an IC50 [1] of 0.7 nM.
In the case of `Nc1ncnc2c1ncn2[C@@H]1C[C@H](CCl)[C@@H](O)[C@H]1O` (relative stereo) [Example 4, (±)-(1R*,2S*,3R*,5S*)-3-(6-Amino-9H-purin-9-yl)-5-(chloromethyl)-1,2-cyclopentanediol], the IC50 [1] is reported as 3500 nM.
With `Nc1ncnc2c1nnn2[C@@H]1CC[C@@H](O)[C@H]1O` (relative stereo) [Example 3C, (±)-(1R*,2S*,3R*)-3-(7-Amino-3H-1,2,3-triazolo[4,5-d]pyrimidin-3-yl)-1,2-cyclopentanediol] the “treatment-related changes with respect to clinical signs of toxicity, body weight, clinical pathology or pathology” value [2] was “No treatment-related changes were observed”, the IC50 [1] was 200 nM and the IC50 (Pneumocystis carinii) was < 20000 nM.
